Data on three compounds can be found in US7563766B2, “Methods and compositions for the promotion of a hair growth utilizing actin binding peptides” (The United States of America as represented by the …, priority 2002, dated 2009).

Data set [1] deals with male and female androgenetic patients. As to conditions: human, in vivo; cited from earlier work.
For data set [2], the system named is human umbilical vein endothelial cells. In words: HUVEC migration, Boyden chamber assay. It is filed as cell-based. On the procedure: (§1) Cells—HUVECs were isolated and used at passages 2-5. Grant et al., J. Cell Sci. 108:3685-3694 (1995). The cells were cultured in RPMI 1640 (Invitrogen, Carlsbad, Calif.) supplemented with 20% bovine calf serum (Hyclone Laboratories, Logan, Utah), 200 μg/ml of endothelial cell growth supplement (ECGS) (Collaborative Biomedical Products, Bedford, Mass.), 0.8 U/ml heparin sodium (Fisher Scientific, Pittsburgh, Pa.), penicillin/streptomycin (Invitrogen, Carlsbad, Calif.), 10 μg/ml gentamycin (Invitrogen, Carlsbad, Calif.), and 1% fungizone (Invitrogen, Carlsbad, Calif.).
Boyden chamber assay—HUVEC migration assays were conducted in a 48-well micro-chemotaxis chamber (Neuro Probe Inc., Cabin John, Md.) as previously described in Salcedo et al., J. Immunol. 166:7571-7578 (2001). Briefly, PVP-free polycarbonate membranes with 8 μm pores were coated with 50 μg/ml of rat tail collagen (BD Biosciences, Bedford, Mass.) in RPMI 1640 that contained 25 mM HEPES (Invitrogen, Carlsbad, Calif.) at 4° C. overnight. The membranes were dried at least 1 hr prior to use. HUVECs were serum-starved for 2 hr, harvested using Versene (Invitrogen, Carlsbad, Calif.), and resuspended in binding medium that contained RPMI 1640 with 1% BSA and 25 mM HEPES. The lower wells of the chamber were loaded with 1, 10, 100, and 1000 ng/ml of thymosin β4 or peptide fragments that were diluted in binding medium. Basic fibroblast growth factor (bFGF) (200 ng/ml) was used as a positive control. Cells were added to the upper portion of the chamber at a concentration of 50,000 cells per well. The chambers were incubated at 37° C. for 4 hr. The filters were fixed and stained using Diff-Quik (VWR, Bridgeport, N.J.). The cells that successfully migrated through the pores of the membrane were manually quantitated using a CK-2 Olympus microscope at 10× magnification. Each condition was assayed in triplicate, and the assay was repeated twice.

Data set [3] has as its system chick aortic arches. The data set can be described thus: Chick aortic arch vessel sprouting assay. It is filed as cell-based. More on the design: key to Sprouting: − = no activity; +/− = low activity; + = active; ++ = high activity. As to conditions: for effect of actin on thymosin β4-mediated sprouting: 5-50 nM. The procedure:
Chick aortic arch assay—The aortic arch of 13-day-old chick embryos was removed and placed in RPMI 1640. After removal of surrounding connective tissue, transverse sections of the arch were made (1 mm). The resulting aortic rings were carefully attached to the bottom of a 48-well plate, one ring per well, with 20-30 μl of Matrigel (Collaborative Biomedical Products). The rings were placed so that the lumen of each ring could be seen. More Matrigel was added onto the top of the rings to seal them in place. A 100 μl volume of human endothelial—SFM basal growth medium (Invitrogen) containing 1% penicillin streptomycin was added to each well. Thymosin β4, peptide fragments, and exogenous actin (Sigma Chemical Co.) were added to wells in serum-free medium, bringing the final volume of each well to 400 μl. ECGS (200 μg/ml) was used as a positive control. The plates were incubated for 24 hr at 37° C. Rings were fixed and stained with Diff-Quik solution II. Sprouting was scored in a blind assessment by an observer using 10× magnification on an Olympus microscope. Six wells were used for each condition tested, and each assay was done three times.

In data set [4] the test system is hair follicles. In words: Topical thymosin β4 or T-3 on shaved aged BALB/c mice. It is filed as in vivo, mouse. As to conditions: 5 μg/50 μl in water. On the procedure:
These mice are considered highly aged as they are alive beyond the normal mouse life expectancy. […] The mice were shaved and treated as described above with thymosin β4 at the time of shaving and 48 hours later. At day 7, the skin was harvested and examined histologically, as described above in Example 1.
The T-3 fragment was produced using an automated peptide synthesizer, as is well known in the art.
The synthetic T-3 peptide was applied in a water solution/mixture at a concentration/dose of 5 μg/50 μl. […] Thus, a fragment of thymosin β4 comprising these amino acids is useful in hair regeneration compositions.

Data set [5] has as its system HUVEC. In words: HUVEC cell adhesion assay. It is filed as cell-based, human. On the procedure: as §1
Cell adhesion—In order to determine which ions are needed for HUVEC adhesion, Laminin-1 peptide (25 ng in 50 μl) and two test concentrations of Tβ4 (100 ng and 500 ng in 50 μl) in 0.1 M carbonate buffer, pH 9.4, were bound to the bottom of U-bottom 96-well plates overnight at 4° C. Wells were then washed twice with PBS and blocked with 150 μl of 3% BSA in PBS (Sigma Chemical Co., St. Louis, Mo.) at room temperature for 30 min. […] The remaining cells were stained with 0.2% crystal violet in 20% methanol, washed in water to remove excess stain, dried overnight at 37° C., and lysed with 10% SDS for 10 min, and the plate OD was read at 600 nm. (Molecular Devices precision microplate reader). […]

Entries after “also recorded” stand apart in the source; their conditions may differ. Ends that are not written are not given here.

For `Nc1cc(N2CCCCC2)nc(N)[n+]1[O-]` [minoxidil], in data set [1], the side effects entry is “scalp irritation and increased facial hair”.

As for LKKTETQ [Peptide T-3], the “endothelial cell migration, in words” value in data set [2] is “fully active”. Also, the “vessel sprouting, in words” value in data set [3] was “fully active”. In data set [3] (Table 2 score), the Sprouting result is listed as “++”. Besides, the “activity in the assays (endothelial cell migration and vessel sprouting)” value in data set [3] (statement covers both migration and sprouting assays) was “generally highly active”. For the same compound, in data set [4], the “hair follicle development vs water alone” value was “increased hair follicle development”.

For the compound actin [reference compound], in data set [5] (control), the “effect of actin on laminin-1-mediated adhesion” value is “no effect”. Besides, the “effect of actin on cell adhesion to thymosin β4” value in data set [5] (soluble actin added, 5-50 nM) is given as “inhibited; also recorded: blocked adhesion”. Further, the “vessel sprouting, in words” value in data set [3] is given as “angiogenic activity”. In addition, in data set [3] (exogenous actin added), the “effect of actin on ECGS-mediated vessel sprouting” value is recorded as “did not inhibit” and the “effect of actin on thymosin β4-mediated sprouting” value is reported as “significantly inhibited”. Moreover, the “effect of actin on thymosin β4-mediated sprouting” value in data set [3] (exogenous actin added, listed as soluble actin) is reported as “inhibited”.
